Counter-ions that a name gives are not always drawn.

In one test the target is T1, Fc portion of human IgG.
T1 construct: fused on or other part: Horseradish peroxidase chemically conjugated to the IgG (detection label)
The test can be described thus: Competitive protein A binding ELISA (inhibition of binding of protein A to human IgG). Particulars: HRP-human IgG, assay in PBS, read-out: IC50 (μM) Assay in PBS, concentration which inhibits 50% binding of protein A. How it is done: As described above, this assay evaluates the ability of the exemplified compounds to mimic protein A. Such compounds can bind to the Fc portion of human IgG as ascertained by the inhibition of binding of protein A to human IgG. The competitive protein A binding ELISA assay was performed on a 96-well plate MAXISORP® surface to enhance the binding of protein A to the bottom of the plate. The wells were coated with 100 μL of protein A (0.8 μg) and incubated overnight at 4° C. After incubation, unbound protein A was removed by three washes with phosphate buffer saline (PBS). The plate was then incubated with 100 μL/well of a 2% solution of bovine serum albumin (BSA) for 1 h at 37° C. to block nonspecific protein binding. After incubation, the plate was washed three times with PBS. 50 μL of compound or protein A, diluted in PBS or PBS-20% DMSO at appropriate concentration, were added to the wells followed by addition of 50 μL of peroxidase-conjugated human IgG (HRP-IgG). After 1 h incubation at 37° C., the plate was washed three times with PBS to remove unbound HRP-IgG. Bound HRP-IgG was detected by incubation with 100 μL of 2,2′-azino-di[3-ethylbenzthiazoline sulfonate] diammonium salt crystals (ABTS) solution for 20 min in the dark at room temperature. The plate was then read at 405 nm on a BIO-TEK® EL 800 Universal Microplate Reader. Data was analyzed in a MICROSOFT® EXCEL® spreadsheet and the concentration of compound which inhibits 50% binding of protein A (IC50) was calculated using PRISM® software, as shown in Table 1.
(In an ELISA, binding on a coated surface is turned into a signal by an enzyme label.)

Test [1] relates to LPS-induced TNFα production in J774A-1 cells. The test can be described thus: LPS-induced TNFα production in J774A-1 cells, TNFα by ELISA. The class given is cell-based. Conditions: Mus musculus, J774.A1, 24 h, read-out: IC50 (μM), concentration which inhibits 50% of TNFα production. How it is done: The effect of compounds on TNFα production was measured by ELISA using J774-1 cells stimulated by lipopolysaccharide (LPS). J774-1 cells were cultured in the presence or absence of LPS and compound. Cells were cultured at 37° C. for 24 h and thereafter the supernatants were collected for the determination of the concentration of TNFα by ELISA as recommended by the manufacturer (BD Biosciences). Data was analyzed in a MICROSOFT® EXCEL® spreadsheet and the concentration of compound which inhibits 50% of TNFα production (IC50) was calculated using PRISM® software, as shown in Table 2.

Test [2] has as its system Freund's adjuvant-induced arthritis (AIA). The test can be described thus: Freund's adjuvant-induced arthritis (AIA) in female Lewis rats. The class given is in vivo. How it is done: AIA was induced in female Lewis rats by the injection of lyophilized Mycobacterium butyricum suspended in mineral oil into the footpad. The development of arthritis was monitored over a 3 week period post-adjuvant injection. Inflammation peaks at day 3 following the adjuvant administration. Immune activation appears around day 14. Compounds were injected i.v. day-3, -2 and -1 pre-adjuvant injection and at day 10, 11 and 12 post-adjuvant injection. Body weight was recorded. The arthritis index, which is a measure of inflammation (edema), redness, and stiffness of the articulations, was used to monitor the development of the disease. The degree of arthritis was determined by measuring two perpendicular diameters of the ankles in the mediolateral and dorsoventral planes using a caliper. Joint circumference in millimeters is then calculated using a geometric formula. Both the incidence and severity of the arthritis was evaluated. Incidence is defined as the number of rats with clinical evidence of joint inflammation during the study period.
The effect of oral administration of compound 1 was determined following the protocol described above with the exception that compound 1 was orally administered at 50 mg/kg from day-3 to day 19. The positive control was indomethacin.

Test [3] has as its system oxazolone-induced delayed-type hypersensitivity (DTH). The experiment in a line: Oxazolone-induced delayed-type hypersensitivity (DTH) in mice. The class given is in vivo. Conditions: for Inflammation/Ear thickness (mm), Challenge 1 / Inflammation/Ear thickness (mm), Challenge 2: intravenous, 50 mg/kg day 0, 1 and 2; for Inflammation/Ear thickness (mm), Challenge 1: first challenge day 3; for Inflammation/Ear thickness (mm), Challenge 2: second challenge day 10. The protocol:
Compounds were tested for their ability to treat oxazolone-induced delayed-type hypersensitivity (DTH) in mice. On day 0, mice were sensitized with 100 μL of oxazolone in 5% acetone. On day 0, 1 and 2, mice were treated by intravenous administration of the vehicle (control) or methotrexate (MTX; positive control) or the compound at 50 mg/kg. Mice were challenged with an application of 50 μL of oxazolone on the surface of the right ear (first challenge, day 3; second challenge, day 10). Ear thickness was measured on day 4 to day 7, and on day 11 to 14. Redness and crust formation was also observed. Mice were sacrificed on day 14. TDTH (CD4) cells play an important role in regulating the intensity of the DTH response.
The effect of oral administration of compound 1 was determined following the protocol described above with the exception that compound 1 was orally administered at 50 or 150 mg/kg from day 0 to day 13. The positive control was hydrocortisone.

Turning to `Nc1ccc(CCn2cnc3c(Nc4cccc(N)c4)nc(NCCCCCCO)nc32)cc1` [Compound 4, 6-{6-(3-Amino-phenylamino)-9-[2-(4-amino-phenyl)-ethyl]-9H-purin-2-ylamino}-hexan-1-ol], the IC50 on Fc portion of human IgG is 4.8 µM; in test [1] it was above 50 µM.

Turning to `Nc1ccc(CCn2cnc3c(Nc4cccc(N)c4)nc(NCCO)nc32)cc1` [Compound 8, 2-{6-(3-Amino-phenylamino)-9-[2-(4-amino-phenyl)-ethyl]-9H-purin-2-ylamino}-ethanol], the IC50 was 64 µM on Fc portion of human IgG and 11 µM in test [1].

Take `Nc1ccc(CCn2cnc3c(Nc4cccc(N)c4)nc(NC4CC4)nc32)cc1` [Compound 5, N6-(3-Amino-phenyl)-9-[2-(4-amino-phenyl)-ethyl]-N2-cyclopropyl-9H-purine-2,6-diamine]: the IC50 was determined as 13 µM at Fc portion of human IgG and 9.2 µM in test [1].

Turning to `Nc1ccc(CCn2cnc3c(Nc4cccc(N)c4)ncnc32)cc1` [Compound 1, N-{9-[2-(4-aminophenyl)ethyl]-9H-purin-6-yl}benzene-1,3-diamine dihydrochloride], the IC50 at Fc portion of human IgG came out at 1 µM. Also, the IC50 in test [1] is above 100 µM. Also, the “reduction in the severity of arthritis (inflammatory index)” value (“reduction … (inflammatory index)” below) in test [2] (intravenous injection, FIG. 2) is recorded as “up to 25%”. In addition, the “reduction … (inflammatory index)” value in test [2] (oral administration, FIG. 3) is 10-30%. Also, in test [3] (intravenous administration), the “potency compared to methotrexate in DTH” value is recorded as “equipotent to methotrexate”; the “redness, crust formation, and ear swelling” value is reported as “reduces”; the “reduction of the inflammation as seen by lower ear thickness” value is “significant reduction”. Further, in test [3], the “Inflammation/Ear thickness (mm), Challenge 1” value is on record as 0.19 ± 0.06 mm and the “Inflammation/Ear thickness (mm), Challenge 2” value is listed as 0.56 ± 0.12 mm. Besides, the “reduction of the inflammation as seen by lower ear thickness” value in test [3] (oral, 50 or 150 mg/kg day 0 to day 13, challenges 1 and 2, FIG. 1) is “significant reduction”.

Take `COc1ccc2c(c1)c(CC(=O)O)c(C)n2C(=O)c1ccc(Cl)cc1` [indomethacin, reference compound]: the “reduction … (inflammatory index)” value in test [2] (oral administration, FIG. 3) is 10-40%.

Consider `Nc1ccc(Cn2cnc3c(Nc4cccc(N)c4)ncnc32)cc1` [Compound 7, N-[9-(4-Amino-benzyl)-9H-purin-6-yl]-benzene-1,3-diamine], for which the IC50 at Fc portion of human IgG is 0.2 µM; in test [1], above 100 µM.

As for `Nc1ccc(CCn2cnc3c(Nc4cccc(N)c4)nc(NCC4CC4)nc32)cc1` [Compound 3, N6-(3-Amino-phenyl)-9-[2-(4-amino-phenyl)-ethyl]-N2-cyclopropylmethyl-9H-purine-2,6-diamine], the results for the IC50 (at Fc portion of human IgG; in test [1]) were 0.7 µM and above 50 µM, respectively.

On to `CC(C)CNc1nc(Nc2cccc(N)c2)c2ncn(CCc3ccc(N)cc3)c2n1` [Compound 11, N6-(3-Amino-phenyl)-9-[2-(4-amino-phenyl)-ethyl]-N2-isobutyl-9H-purine-2,6-diamine], for which the IC50 came out at 22 µM at Fc portion of human IgG and 11 µM in test [1].

On to `Nc1ccc(CCn2cnc3c(Nc4cccc(N)c4)nc(NC4CCCC4)nc32)cc1` [Compound 13, N6-(3-Amino-phenyl)-9-[2-(4-amino-phenyl)-ethyl]-N2-cyclopentyl-9H-purine-2,6-diamine], for which the results for the IC50 (at Fc portion of human IgG; in test [1]) were 0.2 µM and 6.2 µM, respectively.

In the case of `Nc1ccc(CCn2cnc3c(Nc4cccc(N)c4)nc(N)nc32)cc1` [Compound 2, N6-(3-Amino-phenyl)-9-[2-(4-amino-phenyl)-ethyl]-9H-purine-2,6-diamine], the IC50 on Fc portion of human IgG came to 13 µM; in test [1], 76 µM.

On to `Nc1cccc(Nc2nc(F)nc3c2ncn3CCc2ccc(OCc3ccccc3)cc2)c1` [Compound 9, N-{9-[2-(4-Benzyloxy-phenyl)-ethyl]-2-fluoro-9H-purin-6-yl}-benzene-1,3-diamine], for which the IC50 at Fc portion of human IgG was 7.1 µM; in test [1], above 50 µM.

Regarding `Nc1cccc(CCn2cnc3c(Nc4cccc(N)c4)ncnc32)c1` [Compound 12, N-{9-[2-(3-Amino-phenyl)-ethyl]-9H-purin-6-yl}-benzene-1,3-diamine], the IC50 on Fc portion of human IgG was 52 µM; in test [1], above 50 µM.

Turning to `CC(C)(C)Nc1nc(Nc2cccc(N)c2)c2ncn(CCc3ccc(N)cc3)c2n1` [Compound 6, N6-(3-Amino-phenyl)-9-[2-(4-amino-phenyl)-ethyl]-N2-tert-butyl-9H-purine-2,6-diamine], the IC50 on Fc portion of human IgG stood at 1.8 µM; in test [1] it was 2.3 µM.

Take `Nc1cccc(Nc2ncnc3c2ncn3CCc2ccc(F)cc2)c1` [Compound 14, N-{9-[2-(4-Fluoro-phenyl)-ethyl]-9H-purin-6-yl}-benzene-1,3-diamine]: the IC50 was 0.6 µM at Fc portion of human IgG and above 50 µM in test [1].

In the case of `CN(Cc1cnc2nc(N)nc(N)c2n1)c1ccc(C(=O)N[C@@H](CCC(=O)O)C(=O)O)cc1` [Methotrexate, methotrexate, reference compound], the “reduction … (inflammatory index)” value in test [2] (intravenous injection, FIG. 2) came out at 20%. Besides, in test [3], the “Inflammation/Ear thickness (mm), Challenge 1” value was 0.17 ± 0.04 mm and the “Inflammation/Ear thickness (mm), Challenge 2” value is on record as 0.46 ± 0.17 mm.

Consider `CC(C)(C)CNc1nc(Nc2cccc(N)c2)c2ncn(CCc3ccc(N)cc3)c2n1` [Compound 10, N6-(3-Amino-phenyl)-9-[2-(4-amino-phenyl)-ethyl]-N2-(2,2-dimethyl-propyl)-9H-purine-2,6-diamine], for which the values for the IC50 (on Fc portion of human IgG; in test [1]) were 6 µM and 5.3 µM, respectively.
